# Source: the supplement of paper PMC10307832
# What was measured:
# Test in all cases: relative viability (nuclei count vs DMSO), 5 days (fraction); higher = more cells survive
# 17-AAG + Vorinostat = compound: C=CCNC1=C2C[C@@H](C)C[C@H](OC)[C@H](O)[C@@H](C)/C=C(\C)[C@H](OC(N)=O)[C@@H](OC)/C=C\C=C(/C)C(=O)NC(=CC1=O)C2=O [17-AAG] + O=C(CCCCCCC(=O)Nc1ccccc1)NO [Vorinostat] (partner 1 µM)
# Outline: (§1)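 For relative viability, nuclei counts in treated wells were divided by those in vehicle wells. Lung cancer cell lines had been pin-tool dosed in 1536-well plates the day after seeding and cultured for 5 days, then fixed and stained in one step (final 0.05% Triton X-100, 1% formaldehyde, 1 ug/ml Hoechst) and imaged at 4×. Doses were one drug alone or a fixed anchor-drug dose plus five library-drug doses (not always all listed) in √10 steps, and values are duplicate-plate medians.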
# 17-AAG + Palbociclib = compound: C=CCNC1=C2C[C@@H](C)C[C@H](OC)[C@H](O)[C@@H](C)/C=C(\C)[C@H](OC(N)=O)[C@@H](OC)/C=C\C=C(/C)C(=O)NC(=CC1=O)C2=O [17-AAG] + CC(=O)c1c(C)c2cnc(Nc3ccc(N4CCNCC4)cn3)nc2n(C2CCCC2)c1=O [Palbociclib] (partner 0.5 µM)
# Outline: as §1
# 17-AAG + Dasatinib = compound: C=CCNC1=C2C[C@@H](C)C[C@H](OC)[C@H](O)[C@@H](C)/C=C(\C)[C@H](OC(N)=O)[C@@H](OC)/C=C\C=C(/C)C(=O)NC(=CC1=O)C2=O [17-AAG] + Cc1nc(Nc2ncc(C(=O)Nc3c(C)cccc3Cl)s2)cc(N2CCN(CCO)CC2)n1 [Dasatinib] (partner 0.075 µM)
# Outline: as §1
# 17-AAG + Pemetrexed = compound: C=CCNC1=C2C[C@@H](C)C[C@H](OC)[C@H](O)[C@@H](C)/C=C(\C)[C@H](OC(N)=O)[C@@H](OC)/C=C\C=C(/C)C(=O)NC(=CC1=O)C2=O [17-AAG] + Nc1nc2[nH]cc(CCc3ccc(C(=O)N[C@@H](CCC(=O)O)C(=O)O)cc3)c2c(=O)[nH]1 [Pemetrexed] (partner 0.2 µM)
# Outline: as §1
Cell Line,relative viability (17-AAG + Vorinostat; first compound 0.00128 µM),relative viability (17-AAG + Vorinostat; first compound 0.004048 µM),relative viability (17-AAG + Vorinostat; first compound 0.0128 µM),relative viability (17-AAG + Vorinostat; first compound 0.04048 µM),relative viability (17-AAG + Vorinostat; first compound 0.128 µM),relative viability (17-AAG + Palbociclib; first compound 0.00128 µM),relative viability (17-AAG + Palbociclib; first compound 0.004048 µM),relative viability (17-AAG + Palbociclib; first compound 0.0128 µM),relative viability (17-AAG + Palbociclib; first compound 0.04048 µM),relative viability (17-AAG + Palbociclib; first compound 0.128 µM),relative viability (17-AAG + Dasatinib; first compound 0.00128 µM),relative viability (17-AAG + Dasatinib; first compound 0.004048 µM),relative viability (17-AAG + Dasatinib; first compound 0.0128 µM),relative viability (17-AAG + Dasatinib; first compound 0.04048 µM),relative viability (17-AAG + Dasatinib; first compound 0.128 µM),relative viability (17-AAG + Pemetrexed; first compound 0.00128 µM),relative viability (17-AAG + Pemetrexed; first compound 0.004048 µM),relative viability (17-AAG + Pemetrexed; first compound 0.0128 µM),relative viability (17-AAG + Pemetrexed; first compound 0.04048 µM),relative viability (17-AAG + Pemetrexed; first compound 0.128 µM)
HCC-366,0.305,0.374,0.149,0.0397,0.0268,0.415,0.361,0.126,0.0306,0.031,0.726,0.654,0.0387,0.0326,0.0293,0.207,0.311,0.127,0.0359,0.0398
HCC-827,0.963,0.864,0.833,–,0.863,0.47,0.463,0.499,–,0.325,0.332,0.39,0.253,–,0.32,0.283,0.264,0.257,–,0.218
HOP-62,0.687,0.563,0.452,0.141,0.083,0.465,0.451,0.403,0.268,0.273,0.685,0.683,0.485,0.175,0.1,0.409,0.314,0.271,0.127,0.109
IA-LM,0.911,1.02,0.927,0.819,0.823,–,–,–,–,–,–,–,–,–,–,–,–,–,–,–
LC-2-ad,0.701,0.719,0.732,0.318,0.182,0.553,0.53,0.494,0.486,0.172,0.546,0.418,0.18,0.198,0.12,0.298,0.257,0.248,0.219,0.209
LCLC-97TM1,0.848,0.668,0.634,0.44,0.0747,0.264,0.213,0.199,0.251,0.209,0.796,0.813,0.777,0.224,0.159,0.188,0.204,0.186,0.206,0.116
LCLC-103H,0.883,0.844,0.731,0.832,0.818,0.5,0.471,0.489,0.477,0.464,0.446,0.522,0.464,0.456,0.46,0.452,0.48,0.461,0.557,0.61
LK-2,0.323,0.445,0.178,0.174,0.236,0.849,0.64,0.644,0.236,0.0922,0.285,0.396,0.224,0.157,0.116,0.266,0.292,0.211,0.101,0.0875
LOU-NH91,0.86,0.735,0.547,0.482,0.336,0.537,0.51,0.463,0.349,0.394,0.535,0.421,0.359,0.295,0.273,0.392,0.371,0.304,0.302,0.371
LU99A,0.479,0.476,0.301,0.203,0.127,0.434,0.42,0.384,0.454,0.137,0.508,0.387,0.283,0.13,0.0659,0.175,0.184,0.165,0.188,0.111
LXF-289,0.765,0.759,0.402,0.214,0.115,0.606,0.55,0.602,0.545,0.227,0.234,0.183,0.0975,0.064,0.0605,0.889,0.874,0.575,0.201,0.0927
NCI-H23,0.635,0.373,0.344,0.129,0.116,0.503,0.456,0.292,0.192,0.14,0.697,0.746,0.389,0.165,0.119,0.564,0.735,0.442,0.202,0.147
NCI-H322M,0.987,1.15,0.569,0.383,0.482,0.463,0.511,0.468,0.425,0.366,0.284,0.302,0.256,0.257,0.268,0.659,0.652,0.42,0.348,0.366
NCI-H596,0.654,0.582,0.692,0.576,0.323,–,–,–,–,–,0.587,0.524,0.579,0.587,0.238,0.558,0.542,0.508,0.505,0.337
NCI-H727,1.36,1.05,1.23,1.32,0.511,0.661,0.706,0.588,0.482,0.425,0.378,0.376,0.326,0.231,0.214,–,–,–,–,–
NCI-H1563,–,–,–,–,–,–,–,–,–,–,0.493,0.504,0.481,0.42,0.324,0.773,0.898,0.468,0.452,0.414
NCI-H1648,–,0.433,0.362,0.538,0.243,–,0.348,0.32,0.431,0.387,–,–,–,–,–,–,0.904,0.649,0.29,0.288
NCI-H1792,–,–,–,–,–,0.592,0.635,0.542,0.459,0.278,0.761,0.75,0.611,0.493,0.31,0.782,0.378,0.113,0.0425,0.0604
